Source: patent publication US20250129048A1, “MELANOCORTIN 4 RECEPTOR ANTAGONISTS AND USES THEREOF” (Pfizer Inc., priority 2021, published 2025)

Legend:
[1] = molecular target: human Melanocortin-4 receptor (MC4R) (Homo sapiens (Human), UniProt P32245); assay: Functional in vitro MC4R antagonist potency assay (intracellular cAMP, HTRF, CHO cells); type: cell-based; settings: cAMP after EC80 agonist stimulation (200 nM αMSH); Kb from IC50 by Leff-Dougall equation; read-out: Kb (nM) Antagonist geometric mean
Experimental: The functional in vitro antagonist potency for test compounds was determined by monitoring intracellular cyclic adenosine monophosphate (cAMP) levels in Chinese hamster ovary (CHO—) cells stably expressing the human Melanocortin-4 receptor (MC4R). Following agonist activation, human MC4R associates with the G-protein complex causing the Ga subunit to exchange bound GDP for GTP, followed by dissociation of the Gα-GTP complex. The activated Ga subunit can couple to downstream effectors to regulate the levels of second messengers or cAMP within the cell. Thereby, determination of intracellular cAMP levels allows for pharmacological characterization. Intracellular cAMP levels are quantitated using a homogenous assay utilizing the Homogeneous Time-Resolved Fluorescence (HTRF) technology from CisBio. The method is a competitive immunoassay between native cAMP produced by cells and the cAMP labelled with the acceptor dye, d2. The two entities then compete for binding to a monoclonal anti-cAMP antibody labeled with cryptate. The specific signal is inversely proportional to the concentration of cAMP in the cells.
Test compounds were solubilized to 30 mM in 100% dimethyl sulfoxide (DMSO) and stored. An 11-point dilution series using 1 in 3 162-fold serial dilutions was created in 100% DMSO with a top concentration of 800 μM. The serially diluted compound was spotted into a 384-well plate (Greiner, Cat No. 781280) at 40 nL/well with duplicate points at each concentration, and then diluted 1 in 1000 with 40 μL assay buffer containing HBSS, 20 mM HEPES (Invitrogen), 0.1% BSA, and 250 μM IBMX (Sigma Aldrich) to create an intermediate plate at 2× final assay concentration (FAC). The final compound concentration range in the assay was 400 nM to […], with a final DMSO concentration of 0.1%.
In-house generated CHO cells stably expressing the Gs-coupled human MC4R receptor were plated in 384-well assay plates (Corning, Cat No. 3570) in 50 μL/well of Ham's F-12 containing 10% heat inactivated FBS, 1× penicillin/streptomycin, 1 mM Glutamax (Invitrogen) at a density of 2,500 cells per well and incubated at 37° C. (95% O2: 5% CO2) overnight, with micro-clime lids (Labcyte, Cat No. LLS-0310). On day of assay, media was removed from the assay plate through gentle flicking and blotting plate on a paper towel and replaced with 5 μL of 2× antagonist compound in assay buffer (HBSS, 20 mM HEPES, 0.1% BSA, 250 μM IBMX) and 0.1% DMSO. Cells were incubated with compound for 30 minutes at 37° C. (95% O2: 5% CO2) before addition of 5 μL EC80 agonist stimulation (200 nM α-melanocyte stimulating hormone, αMSH, Bachem) and another 30-minute incubation at 37° C. (95% O2: 5% CO2). Intracellular cAMP levels were quantified as per Cisbio's protocol (5 μL of D2 and then 5 μL Cryptate, incubated for 1-2 hours at room temperature). Samples were measured on an Envision plate reader (PerkinElmer Life and Analytical Sciences; excitation, 320 nm; emission, 665 nm/620 nm).
Data were analyzed using the ratio of fluorescence intensity at 620 and 665 nm for each well, extrapolated from the cAMP standard curve to express data as nM cAMP for each well. Data expressed as nM cAMP were then normalized to control wells using Activity Base (IDBS). Zero percent effect (ZPE) was defined as nM of cAMP generated from EC80 agonist stimulation (200 nM αMSH). In the absence of an antagonist control compound, one hundred percent effect (HPE) was defined as nM of cAMP generated from assay buffer/vehicle only.

hMC4R = hMC4R (Homo sapiens (Human), UniProt P32245); assay: In vitro binding affinity assay using hMC4R (radioligand competition binding, CHO cell membranes); settings: competition with [125I]-(Nle4, D-Phe7)-α-MSH 0.5 nM; Ki from IC50 by Cheng-Prusoff; read-out: Ki (nM) geometric mean
Experimental: The binding affinity of test compounds at the α-melanocyte-stimulating hormone receptor (hMC4R) was assessed using a radioligand competition binding assay. Recombinant Chinese hamster ovaries (CHO) cells stably expressing hMC4R (PerkinElmer #ES-191-C) were used for competitive binding. hMC4R membranes were grown in Dulbecco's Modified Essential Medium and Ham's F-12 Medium (DMEM/F12), 10% heat inactivated fetal bovine serum (FBS), 0.4 mg/mL Geneticin and 2 mM L-glutamine. Cell membranes were bulked and frozen until the assay was performed.
Compounds were solubilized in 100% dimethyl sulfoxide (DMSO) to a concentration of 30 mM. A 10-point intermediate dilution series using half log dilutions was created in 100% DMSO with a top concentration of 0.03 mM. The serially diluted compounds were spotted as 1 μL/well, in 96-well Costar 3363 plates. The final compound range in the assay was 300 nM to 0.01 nM with a final DMSO concentration of 1%. Control wells, containing 1 μL of 2 mM ([…]) alpha-melanocyte stimulating hormone (α-MSH-Tocris #2584) was added to the non-specific binding wells and 1 μL 100% DMSO for the total binding control wells. This was followed by the addition of 80 μL of assay buffer [25 mM HEPES, 5 mM MgCl2, 2.5 mM CaCl2, 150 mM NaCl, Complete EDTA-free Protease Inhibitor Tablet (Thermo Scientific #11873580001) and 0.25% BSA]. […] The exact concentration of radioligand used for each experiment was determined by liquid scintillation counting and adjusted if necessary.
Frozen hMC4R cell membranes were thawed and Dounce homogenized. Homogenates were resuspended in assay buffer to a concentration of 2 μg per well. […] The plates were incubated for 2 hours at room temperature. Assay samples were then rapidly filtered through Unifilter-96 GF/B PEI coated filter plates using a filter plate harvester (PerkinElmer) and rinsed with ice-cold wash buffer [25 mM (4-(2-hydroxyethyl)-1-piperazineethanesulfonic acid (HEPES), 1 mM MgCl2, 2.5 mM CaCl2, and 500 mM NaCl]. Filter plates were dried overnight at room temperature. Plates were then bottom-sealed prior to the addition of 50 μL/well Ultima Gold XR scintillation fluid (PerkinElmer 6013111). Plates were then top-sealed, incubated for 60 minutes at room temperature and then the amount of radioactivity present was determined by liquid scintillation counting on a Microbeta Trilux (PerkinElmer #2450-0060).
The raw data (expressed as counts per minute) were analyzed using ActivityBase (IDBS Data Management Software). […] Equilibrium dissociation constant for inhibitor of ligand and receptor interaction (Ki) values were then calculated from the IC50 values using the Cheng-Prusoff equation: Ki=IC50/(1+([L]/Kd)), where [L] is the concentration of the radioligand used in the experiment and Kd is the affinity of the radioligand (determined in separate saturation experiments).

Chain of human Melanocortin-4 receptor (MC4R) (P32245 whole entry): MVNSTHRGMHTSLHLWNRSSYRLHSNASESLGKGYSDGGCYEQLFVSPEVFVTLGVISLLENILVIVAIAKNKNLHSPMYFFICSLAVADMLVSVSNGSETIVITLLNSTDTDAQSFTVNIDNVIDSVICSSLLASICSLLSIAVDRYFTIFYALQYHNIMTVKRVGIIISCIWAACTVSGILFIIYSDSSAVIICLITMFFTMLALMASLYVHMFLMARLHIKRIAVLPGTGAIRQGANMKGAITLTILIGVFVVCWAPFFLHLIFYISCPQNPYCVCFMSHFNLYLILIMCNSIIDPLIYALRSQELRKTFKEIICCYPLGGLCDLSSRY
Chain of hMC4R (P32245 whole entry): as above

Kb [1] [nM]	Ki (hMC4R) [nM]	Compound
2.9	0.23	COc1ccc(C)c([C@@H](C)C(=O)N2CC[C@H](Nc3ccc(-c4cn(C)cn4)c(C)n3)C2)c1 (single isomer, unassigned) [Example 20B]
> 97	> 220	COc1cc(OC(F)F)cc([C@@H](C)C(=O)N2CC[C@H](Nc3ccc(-c4ncccn4)c(C)n3)C2)c1 (single isomer, unassigned) [Example 44A]
19	1.2	COc1cc([C@@H](C)C(=O)N2CC[C@H](Nc3ccc(-c4nc(C(F)F)n(C5CC5)n4)c(C)n3)C2)c(F)cn1 [Example 8, (2R)-1-[(3S)-3-({5-[1-cyclopropyl-5-(difluoromethyl)-1H-1,2,4-triazol-3-yl]-6-methylpyridin-2-yl}amino)pyrrolidin-1-yl]-2-(5-fluoro-2-methoxypyridin-4-yl)propan-1-one]
9.5	0.91	COc1cc([C@@H](C)C(=O)N2CC[C@H](Nc3ccc(-c4nc5ccccn5n4)c(C)n3)C2)c(F)cn1 [Example 43, (2R)-2-(5-fluoro-2-methoxypyridin-4-yl)-1-[(3S)-3-{[6-methyl-5-([1,2,4]triazolo[1,5-a]pyridin-2-yl)pyridin-2-yl]amino}pyrrolidin-1-yl]propan-1-one]
3.6	2	COc1cc([C@@H](C)C(=O)N2CC[C@H](Nc3ccc(-c4nc(C(F)F)n(C)n4)c(C)n3)C2)nc(C)n1 (single isomer, unassigned) [Example 41B]
4.1	0.77	COc1cc(OC(F)F)cc([C@@H](C)C(=O)N2CC[C@H](Nc3ccc(-c4ncccn4)c(C)n3)C2)c1 (single isomer, unassigned) [Example 44B]
3.3	1.1	COc1cc([C@@H](C)C(=O)N2CC[C@H](Nc3ccc(-c4nc(C(F)F)n(C)n4)c(C)n3)C2)ccn1 (single isomer, unassigned) [Example 33B]
> 150	> 170	COc1cc([C@@H](C)C(=O)N2CC[C@H](Nc3ccc(-c4nnn(C)n4)c(C)n3)C2)c(C)cn1 (single isomer, unassigned) [Example 26A]
1.3	0.25	Cc1nc(N[C@H]2CCN(C(=O)Cc3cc(F)c(F)c(F)c3)C2)ccc1-c1cn(C)c(C(F)F)n1 [Example 28, 1-[(3S)-3-({5-[2-(difluoromethyl)-1-methyl-1H-imidazol-4-yl]-6-methylpyridin-2-yl}amino)pyrrolidin-1-yl]-2-(3,4,5-trifluorophenyl)ethan-1-one]
2.1	0.51	COc1cc([C@@H](C)C(=O)N2CC[C@H](Nc3ccc(-c4nc5ccccn5n4)c(C)n3)C2)c(Cl)cn1 [Example 18, (2R)-2-(5-chloro-2-methoxypyridin-4-yl)-1-[(3S)-3-{[6-methyl-5-([1,2,4]triazolo[1,5-a]pyridin-2-yl)pyridin-2-yl]amino}pyrrolidin-1-yl]propan-1-one]

Compound	Kb [1] [nM]	Ki (hMC4R) [nM]
COc1cc([C@@H](C)C(=O)N2CC[C@H](Nc3ccc(-c4nnn(C)n4)c(C)n3)C2)c(F)cn1 [Example 5, (2R)-2-(5-fluoro-2-methoxypyridin-4-yl)-1-[(3S)-3-{[6-methyl-5-(2-methyl-2H-tetrazol-5-yl)pyridin-2-yl]amino}pyrrolidin-1-yl]propan-1-one]	17	2.6
COc1cc([C@@H](C)C(=O)N2CC[C@H](Nc3ccc(-c4nc(C(C)(F)F)n(C)n4)c(C)n3)C2)c(F)cn1 [Example 4, (2R)-1-[(3S)-3-({5-[5-(1,1-difluoroethyl)-1-methyl-1H-1,2,4-triazol-3-yl]-6-methylpyridin-2-yl}amino)pyrrolidin-1-yl]-2-(5-fluoro-2-methoxypyridin-4-yl)propan-1-one]	9.6	1
